# Earlier results, collected in patent US6642275B2, “Formulation for respiratory tract administration” (Euro- Celtique, S.A., priority 1995, dated 2003).
# Where two headings read alike, the source gives them in different places.
# Tests used:
# [1] = animal models, M1 vs tramadol
# [2] = for plasma clearance rate: 100 mg IV dose
# [3] = single oral dose, adjusted for body weight
SMILES,"binding to opioid receptors (affinity, in words) (opioid receptors)",potency in opioid receptor binding relative to tramadol (opioid receptors; M1 vs tramadol) [times],potency in producing analgesia relative to tramadol [1],potency in producing analgesia relative to tramadol ([1]; listed as mono-O-desmethyltramadol),plasma clearance rate ([2]; females) [mL/min/kg],plasma clearance rate ([2]; males) [mL/min/kg],"higher area under the concentration-time curve in females compared to males [2, 3] [%]","higher peak tramadol concentration in females compared to males [2, 3] [%]"
"CN(C)C[C@H]1CCCC[C@]1(O)c1cccc(O)c1 [Formula M1, mono-O-desmethyltramadol]",high affinity,200,up to 6 times,about 6 times,–,–,–,–
"COc1cccc([C@@]2(O)CCCC[C@H]2CN(C)C)c1 (racemic) [tramadol, (±) trans-2-[(dimethylamino)methyl]-1-(3-methoxyphenyl) cyclohexanol]",–,–,–,–,5.7,6.4,35,12
